Measured values: article PMC8911579, “(−)-Naringenin 4′,7-dimethyl Ether Isolated from Nardostachys jatamansi Relieves Pain through Inhibition of Multiple Channels” (Molecules, 2022)

What was measured:
[1] = tested on: mustard oil-induced colorectal pain; assay: mustard oil-induced mouse colorectal pain model; type: in vivo, C57BL/6 mice; details: 30 min observation
Method: The dose-dependent relief of somatic pain in the formalin model prompted us to ask whether it could attenuate the visceral pain. Thereby, we constructed the mustard oil-induced mouse colorectal pain model as previously described. […] As those observed in intraplantar formalin-induced pain, (−)-NRG-DM dose dependently relieved intracolonic mustard oil-caused writhing (Figure 3A). After intraperitoneal application of 30 mg/kg and 50 mg/kg (−)-NRG-DM, the writhing number reduced by approximately 60% and 80%, respectively (Figure 3B).
Male C57BL/6 mice, weighing 23~25 g, were randomly assigned into 3 groups (n = 10 for each group) and placed in a transparent observation chamber for at least 20 min prior to the experiment. Mice were intraperitoneally administrated with vehicle or (−)-NRG-DM (30 or 50 mg/kg) 30 min before the injection of diluted mustard. Subsequently, 50 µL of diluted mustard oil solution (0.75% in 70% ethanol) was intracolonically administrated and the number of pain responses was counted for 30 min. In the present study, postures defined as pain-related behaviors were in agreement with previous descriptions: (1) licking of the abdomen, (2) stretching the abdomen, (3) squashing of lower abdomen against the floor, (4) abdominal wall retractions.

[2] = tested on: acutely isolated mouse small-diameter DRG neurons; assay: whole-cell current-clamp, action potential firing in DRG neurons; type: cell-based; details: for action potential amplitude: 200 pA current injection, 500 ms, control 98.00 ± 6.19 mV
From the text: To investigate the underlying mechanism of (−)-NRG-DM-mediated analgesic activity, whole-cell current-clamp technology was applied to examine the effects of (−)-NRG-DM on the action potential firing in acutely isolated mouse small-diameter DRG neurons. The action potentials were evoked by a current injection of 200 pA for a 500 ms period. The threshold was defined by the first amplitude at which an action potential with a membrane potential larger than 0 mV was produced, and the amplitude was defined as the peak relative to the resting membrane potential. […] The amplitudes were reduced from 98.00 ± 6.19 mV to 95.00 ± 5.65 mV, 93.40 ± 8.27 mV, 86.80 ± 9.75 mV, and 74.40 ± 7.08 mV after perfusion of 1 μM, 3 μM, 10 μM, and 30 μM (−)-NRG-DM, respectively (Figure 4C, n = 5). Current threshold, the injection current required to elicit a single all-or-none action potential, was determined by applying 500 ms depolarizing currents of increasing magnitude. […] The inhibitory effects of (−)-NRG-DM on the firing frequency and the amplitudes of action potentials were partially reversible after washout.
Dorsal root ganglia (DRG) were dissected from male C57BL/6 mice aged 4~6 weeks. The ganglia were first cut into small pieces and then digested at 37 °C for 20 min in DMEM containing 1 mg/mL collagenase type I and 0.25 mg/mL trypsin (Sigma-Aldrich). Subsequently, the digested small fragments were terminated and resuspended with DMEM/F12 growth medium (Gibco) supplemented with 10% fetal bovine serum (FBS) (Gibco). Finally, the dissociated DRG neurons were seeded onto 24-well plates with poly-L-lysine-coated coverslips and placed in a 37 °C, 5% CO2 incubator for at least 1 h before electrophysiological experiments.

[3] = tested on: Kv channels in DRG neurons; assay: activation kinetics of Kv currents in DRG neurons; type: cell-based, mouse; details: in presence of 10 µM; control −6.43 ± 1.21 mV
From the text: The currents in mouse DRG neurons can be separated into IA and IK. They could be distinguished by applying voltage steps from a holding potential of −50 mV, at which IA was almost completely inactivated, while IK remained unchanged. Thereby, IA could be separated by subtracting IK from the total potassium currents. According to these electrophysiological characteristics, the effects of (−)-NRG-DM on potassium currents were examined (Figure 5A). […] Additionally, the effects of (−)-NRG-DM on the kinetics of the Kv channels were further characterized. The Kv currents were elicited by multiple 1500 ms depolarization pulses ranging from −80 mV to +90 mV in 10 mV increments from a holding potential of −80 mV. […] The values of V1/2 in the absence and presence of 10 µM (−)-NRG-DM were −6.43 ± 1.21 mV and −8.08 ± 2.02 mV, respectively (Figure 5D).

[4] = tested on: TTX-resistant (TTX-R) currents in small-diameter DRG neurons; type: cell-based, mouse; details: 300 nM TTX
[5] = pharmacokinetic study, plasma concentration after intraperitoneal administration; type: in vivo, ICR mice
Method: The pharmacokinetic study was performed in male ICR mice weighted 20 ± 2 g. The mice were fasted for 12 h before intraperitoneal administration of (−)-NRG-DM at 50 mg/kg. Blood samples (0.5 mL) were collected at 0.5, 1, and 1.5 h from the abdominal aorta into the heparinized tubes after drug administration. The plasma was separated by centrifugation (11,000 rpm for 5 min) and then stored at −80 °C until analyzed. Plasma samples (20 μL) were treated with the addition of the internal standard solution (20 μL) and acetonitrile (300 μL), then vortexed for 15 min (1000 rpm, RT), and centrifuged of 15 min (3700 rpm, 4 °C). The supernatants were collected for analysis using LC−MS/MS. The data were processed using Analyst software version 1.6.3 (Sciex, ON, Canada).

[6] = biological target: T1, TRPA1 channels (Homo sapiens, UniProt O75762); assay: whole-cell patch-clamp, TRPA1 stably expressed in HEK293 cells; type: cell-based; details: 30 µM
T1 construct: expressed in transfected cells
T1 sequence (O75762 whole entry): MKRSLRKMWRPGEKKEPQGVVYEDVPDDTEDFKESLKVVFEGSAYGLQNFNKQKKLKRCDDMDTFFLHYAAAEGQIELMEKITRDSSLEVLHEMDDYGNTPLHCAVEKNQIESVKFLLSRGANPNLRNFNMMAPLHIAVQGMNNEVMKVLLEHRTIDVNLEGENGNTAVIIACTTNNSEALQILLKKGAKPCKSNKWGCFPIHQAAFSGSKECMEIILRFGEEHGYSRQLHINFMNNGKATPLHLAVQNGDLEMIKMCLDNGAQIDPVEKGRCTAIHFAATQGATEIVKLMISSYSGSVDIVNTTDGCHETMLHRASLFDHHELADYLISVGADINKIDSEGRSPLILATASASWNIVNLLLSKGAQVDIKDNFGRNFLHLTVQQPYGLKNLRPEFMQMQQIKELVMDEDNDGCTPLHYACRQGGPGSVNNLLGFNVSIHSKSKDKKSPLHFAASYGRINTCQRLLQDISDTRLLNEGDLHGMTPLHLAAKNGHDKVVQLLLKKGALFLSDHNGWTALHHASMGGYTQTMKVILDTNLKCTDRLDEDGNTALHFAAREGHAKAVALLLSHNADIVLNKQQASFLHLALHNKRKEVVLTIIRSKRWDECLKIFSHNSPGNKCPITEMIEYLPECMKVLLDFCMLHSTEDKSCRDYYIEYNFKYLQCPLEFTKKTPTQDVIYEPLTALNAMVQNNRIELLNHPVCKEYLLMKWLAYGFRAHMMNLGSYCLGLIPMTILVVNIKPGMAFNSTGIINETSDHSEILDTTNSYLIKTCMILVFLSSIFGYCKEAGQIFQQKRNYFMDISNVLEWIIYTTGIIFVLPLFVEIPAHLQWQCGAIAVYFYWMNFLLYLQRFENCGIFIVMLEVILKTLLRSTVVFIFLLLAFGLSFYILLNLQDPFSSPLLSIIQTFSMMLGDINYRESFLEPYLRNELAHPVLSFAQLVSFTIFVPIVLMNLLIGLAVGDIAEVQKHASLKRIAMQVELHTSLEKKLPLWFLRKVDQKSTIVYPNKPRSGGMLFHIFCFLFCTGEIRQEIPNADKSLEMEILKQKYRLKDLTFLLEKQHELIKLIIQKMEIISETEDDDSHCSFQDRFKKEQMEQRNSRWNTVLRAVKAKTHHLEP

SMILES: COc1ccc([C@H]2CC(=O)c3c(O)cc(OC)cc3O2)cc1 [(−)-NRG-DM, (−)-naringenin 4′,7-dimethyl ether]
- reduction of writhing number ([1]; 30 mg/kg i.p.): approximately 60%
- reduction of writhing number ([1]; 50 mg/kg i.p.): ~80%
- concentration at which significant reduction in number of action potentials started [2]: 10 µM
- action potential amplitude ([2]; 1 μM): 95.00 ± 5.65 mV
- action potential amplitude ([2]; 3 μM): 93.40 ± 8.27 mV
- action potential amplitude ([2]; 10 μM): 86.80 ± 9.75 mV
- action potential amplitude ([2]; 30 μM): 74.40 ± 7.08 mV
- firing frequency of DRG neurons ([2]; 1~30 μM): dose-dependently inhibited the firing frequency
- V1/2 of activation of Kv currents [3]: −8.08 ± 2.02 mV
- V1/2 of activation, TTX-R currents ([4]; 30 μM, control −16.82 ± 0.72 mV): −20.14 ± 0.87 mV
- V1/2 of steady-state inactivation, TTX-R currents ([4]; 30 µM, control −39.43 ± 0.66 mV): −49.99 ± 0.67 mV
- plasma concentration ([5]; 0.5~1.5 h after i.p. injection at 50 mg/kg): around 7 µM
- concentration at 0.5 h ([5]; male, ICR, mouse, ip, plasma, 50 mg/kg i.p., 0.5 h, mean ± SEM): 2290 ± 183 ng/mL
- concentration at 1 h ([5]; male, ICR, mouse, ip, plasma, 50 mg/kg i.p., 1 h, mean ± SEM): 2220 ± 1250 ng/mL
- concentration at 1.5 h ([5]; male, ICR, mouse, ip, plasma, 50 mg/kg i.p., 1.5 h, mean ± SEM): 717 ± 222 ng/mL
- Concentration (μM/L) ([5]; plasma, 50 mg/kg i.p., 0.5 h, mean ± SEM): 7.64 ± 0.61 µM
- Concentration (μM/L) ([5]; plasma, 50 mg/kg i.p., 1 h, mean ± SEM): 7.39 ± 4.17 µM
- Concentration (μM/L) ([5]; plasma, 50 mg/kg i.p., 1.5 h, mean ± SEM): 2.39 ± 0.74 µM
- effect on TRPA1 currents and AITC-induced TRPA1 currents [6]: did not enhance any TRPA1 currents or inhibit AITC-induced TRPA1 currents either
